The text below walks through data of patent publication US10195156B2, “Compounds and compositions for intracellular delivery of agents” (ModernaTX, Inc., priority 2015, dated 2019).

Each structure is given as a SMILES string.

A short description of series [1]: Particle size and polydispersity index of nanoparticle compositions (Zetasizer Nano ZS). The class given is physicochemical. Here is the method: A Zetasizer Nano ZS (Malvern Instruments Ltd, Malvern, Worcestershire, UK) can be used to determine the particle size, the polydispersity index (PDI) and the zeta potential of the nanoparticle compositions in 1×PBS in determining particle size and 15 mM PBS in determining zeta potential.

Series [2] in a line: Encapsulation efficiency of RNA (QUANT-IT RIBOGREEN RNA assay). It counts as physicochemical. Here is the method: For nanoparticle compositions including an RNA, a QUANT-IT™ RIBOGREEN® RNA assay (Invitrogen Corporation Carlsbad, Calif.) can be used to evaluate the encapsulation of an RNA by the nanoparticle composition. The samples are diluted to a concentration of approximately 5 μg/mL in a TE buffer solution (10 mM Tris-HCl, 1 mM EDTA, pH 7.5). 50 μL of the diluted samples are transferred to a polystyrene 96 well plate and either 50 μL of TE buffer or 50 μL of a 2% Triton X-100 solution is added to the wells. The plate is incubated at a temperature of 37° C. for 15 minutes. The RIBOGREEN® reagent is diluted 1:100 in TE buffer, and 100 μL of this solution is added to each well. The fluorescence intensity can be measured using a fluorescence plate reader (Wallac Victor 1420 Multilablel Counter; Perkin Elmer, Waltham, Mass.) at an excitation wavelength of, for example, about 480 nm and an emission wavelength of, for example, about 520 nm. The fluorescence values of the reagent blank are subtracted from that of each of the samples and the percentage of free RNA is determined by dividing the fluorescence intensity of the intact sample (without addition of Triton X-100) by the fluorescence value of the disrupted sample (caused by the addition of Triton X-100).

Series [3] in a line: pKa of nanoparticle compositions. It counts as physicochemical.
Series [4] has as its system luciferase (Luc) mRNA expression. In words: Expression of Luc induced by sample formulations, whole-body bioluminescence after intravenous administration. The class given is in vivo. Particulars: mice, i.v., 0.5 mg/kg; for total flux / Luc expression, rank within the named table (in words): each time point. Here is the method: In order to monitor how effectively various nanoparticle compositions deliver therapeutic and/or prophylactic agents to targeted cells, different nanoparticle compositions including a particular therapeutic and/or prophylactic agent (for example, a modified or naturally occurring RNA such as an mRNA) are prepared and administered to rodent populations. Mice are intravenously, intramuscularly, intraarterially, or intratumorally administered a single dose including a nanoparticle composition with a formulation such as those provided in Table 1. In some instances, mice may be made to inhale doses. Dose sizes may range from 0.001 mg/kg to 10 mg/kg, where 10 mg/kg describes a dose including 10 mg of a therapeutic and/or prophylactic agent in a nanoparticle composition for each 1 kg of body mass of the mouse. A control composition including PBS may also be employed.
Upon administration of nanoparticle compositions to mice, dose delivery profiles, dose responses, and toxicity of particular formulations and doses thereof can be measured by enzyme-linked immunosorbent assays (ELISA), bioluminescent imaging, or other methods. For nanoparticle compositions including mRNA, time courses of protein expression can also be evaluated. Samples collected from the rodents for evaluation may include blood, sera, and tissue (for example, muscle tissue from the site of an intramuscular injection and internal tissue); sample collection may involve sacrifice of the animals.
The efficacy of the nanoparticle compositions presented in Tables 1, 1a, 17-1, 19-1, 20-1 and 21-1 was evaluated with a bioluminescence study. Formulations were administered intravenously to mice (n=6) at a dosage of 0.5 mg/kg (mpk) and bioluminescence measured at 3, 6, and 24 hour time points. The standard MC3 formulation and a PBS control were evaluated for comparison.

The subject of series [5] is modified luciferase expression. In words: Expression of Luc in different organs (liver, lung, spleen, femur) 6 hours after intravenous administration. It counts as in vivo. Particulars: i.v., 0.5 mpk; for total flux in organs, rank or organ comparison (in words): each organ or overall. Here is the method:
The efficacy of the nanoparticle compositions presented in Tables 1, 1a, 17-1, 19-1, 20-1 and 21-1 was further evaluated by measuring the expression of modified luciferase in the liver, lung, spleen, and femur upon administration of a given composition. Formulations were administered intravenously to mice (n=3) at a dosage of 0.5 mpk and bioluminescence measured after 6 hours. The standard MC3 formulation and a PBS control were also tested.

In series [6] the test system is IP-10. In words: Cytokine production induced by sample formulations: IP-10. It counts as in vivo. As to conditions: mice, i.v., 0.5 mpk, 6 hours, in pg/mL (unit assumed). From the text: The introduction of foreign material into a mammalian body induces an innate immune response that promotes cytokine production. Such immune responses to, for example, nanoparticle compositions including therapeutic and/or prophylactic agents, are undesirable. The induction of certain cytokines is thus measured to evaluate the […] of nanoparticle compositions. The concentrations of various cytokines in mice upon intravenous administration of nanoparticle compositions presented in Tables 1, 1a, 17-1, 19-1, 20-1 and 21-1 at a dosage of 0.5 mpk was measured at 6 hours. The standard MC3 formulation and a PBS control were also tested.

The mark [7] stands for this setting: Table 1, * lipid:DSPC:Chol:PEG-DMG 50:10:38.5:1.5.
[8] abbreviates: comparison amongst compositions.
Setting [9] is: Table 20-1, rows without footnote mark.

For `CCCCCCCCCCCCN(CCCCCCCCCCCC)CCN1CCN(C(=O)CN(CCCCCCCCCCCC)CCN(CCCCCCCCCCCC)CCCCCCCCCCCC)CC1` [Compound 2, 2-((2-(Didodecylamino)ethyl)(dodecyl)amino)-1-(4-(2-(didodecylamino)ethyl)piperazin-1-yl)ethan-1-one], the “Size (nm)” value in series [1] (Table 1, * formulated with lipid:DSPC:Chol:PEG-DMG 50:10:38.5:1.5) came out at 94.7 nm. In addition, in series [1] (setting [7]), the PDI came out at 0.108. The “EE (%)” value in series [2] (setting [7]) stood at 96%. For the same compound, the pKa (in general, the negative logarithm of the acid dissociation constant) in series [3] (setting [7]) turned out to be 6.39. Further, in series [4] (Table 2), the “Total Flux 3 hours” value stood at 6.01E+09 and the “Total Flux 6 hours” value is given as 3.23E+09. Further, the “Total Flux 24 hours” value in series [4] (Table 2, 24 hours) is 3.23E+09. In addition, in series [5] (Table 3, mice), the “Total Flux Liver” value was 3.33E+08 and the “Total Flux Lung” value is 4.76E+05. Besides, the “Total Flux Spleen” value in series [5] (Table 3, mice, spleen) came to 1.14E+07. In series [6] (Table 4), this compound came in with an IP-10 of 3365.
Turning to `CCCCCCCC/C=C\CCCCCCCCN(CCO)CCCCCCCC/C=C\CCCCCCCC` [Compound 17-8, 2-(Di((Z)-octadec-9-en-1-yl)amino)ethan-1-ol], in series [1] (Table 17-1), the PDI is reported as 0.20 and the “Size (nm)” value was 86.4 nm. In series [2] (Table 17-1), the “EE (%)” value worked out at 96.9%. Moreover, the “encapsulation efficiency, rank within the named table (in words)” value in series [2] (setting [8]) is recorded as “comparable to that for MC3”. Moreover, the pKa in series [3] (Table 17-1) amounted to 6.16. Besides, in series [4] (Table 17-2), the “Total Flux 3 hours” value was 1.02E+09 and the “Total Flux 6 hours” value worked out at 5.94E+08. Further, the “Total Flux 24 hours” value in series [4] (Table 17-2, 24 hours) is 3.79E+07. Moreover, the “total flux / Luc expression, rank within the named table (in words)” value in series [4] is “substantially higher flux than compositions including Compounds 17-2, 17-3, and 17-7”. In series [5] (Table 17-3, mice), the “Total Flux Liver” value is given as 2.27E+08 and the “Total Flux Lung” value is reported as 6.11E+05. Moreover, the “Total Flux Spleen” value in series [5] (Table 17-3, mice, spleen) is recorded as 4.25E+06. In addition, the “total flux in the liver, rank within the named table (in words)” value in series [5] (mice) was “somewhat comparable to those including MC3”. Moreover, the “total flux in the spleen, rank within the named table (in words)” value in series [5] (mice, spleen) is recorded as “highest”. The IP-10 in series [6] (Table 17-4) turned out to be 135.
For the compound `CCCCCCCCCN(CCO)CCN(CCCCCCCCC)CCCCCCCCC` [Compound 20-16, 2-((2-(Dinonylamino)ethyl)(nonyl)amino)ethan-1-ol], in series [1] (setting [9]), the PDI is recorded as 0.225 and the “Size (nm)” value is on record as 73.5 nm. For the same compound, the “EE (%)” value in series [2] (setting [9]) came to 97.2%. The pKa in series [3] (setting [9]) is 6.62. In series [4] (Table 20-2), the “Total Flux 3 hours” value amounted to 7.88E+05 and the “Total Flux 6 hours” value was 6.25E+05. The “Total Flux 24 hours” value in series [4] (Table 20-2, 24 hours) was 2.16E+05. Besides, the “total flux after 24 hours, rank within the named table (in words)” value in series [4] (24 hours) is reported as “lowest”. Further, in series [5] (Table 20-3, mice), the “Total Flux Liver” value came out at 9.55E+04 and the “Total Flux Lung” value was 1.44E+04. The “Total Flux Spleen” value in series [5] (Table 20-3, mice, spleen) came to 6.57E+04. In addition, the “total flux in the liver, rank within the named table (in words)” value in series [5] (mice) is reported as “lowest”. In addition, the IP-10 in series [6] (Table 20-4, formula (20-I)) is on record as 395.7.
For `CCCCC/C=C\C/C=C\CCCCCCCCC1(CCCCCCCC/C=C\C/C=C\CCCCC)CC(OC(=O)CCCN(C)C)C1` [Compound 21-2, 3,3-Di((9Z,12Z)-octadeca-9,12-dien-1-yl)cyclobutyl 4-(dimethylamino)butanoate], in series [1] (Table 21-1), the PDI turned out to be 0.200 and the “Size (nm)” value is 83.0 nm. Also, in series [1] (setting [8]), the “particle size, rank within the named table (in words)” value is on record as “smallest particles”. Besides, the “EE (%)” value in series [2] (Table 21-1) was determined as 99.4%. The same compound displayed a pKa in series [3] (Table 21-1) of 6.98. In series [4] (Table 21-2), the “Total Flux 3 hours” value amounted to 5.99E+08 and the “Total Flux 6 hours” value was found to be 8.09E+08. For the same compound, the “Total Flux 24 hours” value in series [4] (Table 21-2, 24 hours) came to 8.09E+08. Moreover, the “total flux / Luc expression, rank within the named table (in words)” value in series [4] was “least expression at 3 and 6 hours”. For the same compound, in series [5] (Table 21-3, mice), the “Total Flux Liver” value was determined as 5.50E+07 and the “Total Flux Lung” value stood at 2.53E+05. Besides, in series [5] (Table 21-3, mice, spleen), the “Total Flux Spleen” value came out at 1.56E+07. Further, in series [5] (mice), the “total flux in organs, rank or organ comparison (in words)” value is recorded as “lowest expression in each organ”.
Consider `CCCCC/C=C\C/C=C\CCCCCCCCC1(CCCCCCCC/C=C\C/C=C\CCCCC)CCC(OC(=O)CCCN(C)C)C1` (stereo not shown) [Compound 21-4, 3,3-Di((9Z,12Z)-octadeca-9,12-dien-1-yl)cyclopentyl 4-(dimethylamino)butanoate], for which, in series [1] (Table 21-1), the PDI was 0.193 and the “Size (nm)” value is 94.9 nm. Further, the “EE (%)” value in series [2] (Table 21-1) is listed as 98.8%. This compound also displayed a pKa in series [3] (Table 21-1) of 7.01. For the same compound, in series [4] (Table 21-2), the “Total Flux 3 hours” value came out at 1.15E+09 and the “Total Flux 6 hours” value came out at 1.26E+09. For the same compound, the “Total Flux 24 hours” value in series [4] (Table 21-2, 24 hours) is given as 1.26E+09. Besides, in series [5] (Table 21-3, mice), the “Total Flux Liver” value is reported as 9.89E+07 and the “Total Flux Lung” value was found to be 2.13E+05. In addition, the “Total Flux Spleen” value in series [5] (Table 21-3, mice, spleen) turned out to be 1.27E+07. Also, the “total flux in organs, rank or organ comparison (in words)” value in series [5] (mice) is listed as “lowest expression in each organ”.
Regarding `CCCCC/C=C\C/C=C\CCCCCCCC1C(CCCCCCC/C=C\C/C=C\CCCCC)C1CN(C)C` (stereo not shown) [Compound 21-6, 1-(2,3-Di((8Z,11Z)-heptadeca-8,11-dien-1-yl)cyclopropyl)-N,N-dimethylmethanamine], in series [1] (Table 21-1), the PDI is given as 0.110 and the “Size (nm)” value is given as 86.8 nm. In series [2] (Table 21-1), the “EE (%)” value came out at 98.9%. In addition, in series [3] (Table 21-1), the pKa was determined as 6.99. In series [4] (Table 21-2), the “Total Flux 3 hours” value is listed as 2.92E+09 and the “Total Flux 6 hours” value is on record as 4.54E+09. For the same compound, the “Total Flux 24 hours” value in series [4] (Table 21-2, 24 hours) is 1.40E+08. In addition, in series [5] (Table 21-3, mice), the “Total Flux Liver” value was determined as 4.79E+08 and the “Total Flux Lung” value came to 2.09E+06. Further, the “Total Flux Spleen” value in series [5] (Table 21-3, mice, spleen) is 1.94E+07.
